Experiments:
H2AX histone (γH2AX) = test system: H2AX histone (γH2AX); design: method as in PMID 21371266; details: cited from earlier work
plasma proteins = details: mouse, in vivo
Description: After drug administration, five animals from each group were euthanized at selected time-points (0.5, 1, 6, 12, 24 and 48 h) with pentobarbital intraperitoneal injection (120 mg/kg) followed by cardiac puncture for blood collection. Blood serum was separated after leaving the blood to coagulate for 30 min at room temperature and centrifugation (at 500× g, and 4 °C for 15 min). […] Both blood serum and serum ultrafiltrate were aliquoted (50 μL) and stored at −80 °C until ICP-MS analysis.
Briefly, 50 μL of blood serum, 50 μL of serum ultrafiltrate and weighed entire freeze-dried organs/tissues (up to 50 mg) were placed into 10 mL polypropylene conical tubes. In the case of liver, for which the weight surpassed 50 mg, the tissue was first pulverized with a Precellys® Evolution tissue homogenizer (Bertin-Instruments, Montigny-le-Bretonneux, France) using 2.8 mm stainless steel beads (two cycles of 10 s at 6000 rpm speed) and accurately weighed (50 mg) in tubes. Samples were digested directly in tubes with 0.9 mL of HNO3 (≥69.0% w/w) plus 0.3 mL of HCl (37% w/w) in a water bath at 90 °C for 1 h. Sample digests were cooled to room temperature, 0.5 mL of a 100 µg/L internal standards (IS) solution was added and the final volume was adjusted to 5 mL with ultrapure water (final concentration of IS = 10 µg/L). […]

HCC-1143 cells = assay: In vitro cellular drug uptake/accumulation by ICP-MS; assay type: cell-based, human; details: 24 h; for dependence of cellular drug uptake on drug concentration in medium: 2-8 µM
Description: (§1) The in vitro studies were performed on human triple-negative (lack of estrogen receptors, progesterone receptors and HER2 overexpression) breast cancer cell lines MDA-MB-231 and HCC-1143, which were purchased from the Leibniz Institute DSMZ-German Collection of Microorganisms and Cell Cultures GmbH, Germany. MDA-MB-231 were cultured in DMEM-HG cell culture medium supplemented with 10% (v/v) FBS, and HCC-1143 cells were cultured in RPMI-1640 cell culture medium supplemented with 20% (v/v) FBS. Cells were maintained in a sterile environment at 37 °C with a 5% CO2 humidified atmosphere and were routinely tested for mycoplasma contamination.
(§2) The intracellular Pt and Pd accumulation in MDA-MB-231 and HCC-1143 cells was analyzed using ICP-MS. First, 3 × 10^4/cm^2 cells were seeded in T75 culture flasks and allowed to attach for 24 h. […] The cells were trypsinized, washed twice with ice-cold 0.9% saline solution, and 10^6 cells were pelleted and freeze-dried. The lyophilized cell pellets were digested and analyzed using the same analytical procedure described for the pharmacokinetic study. […] The protein concentration used for the data normalization was determined from identical samples that were prepared in parallel and quantified with the Bradford protein assay.

MDA-MB-231 cells = assay: as above; assay type: cell-based, human; details: 24 h; for dependence of cellular drug uptake on drug concentration in medium: 2-8 µM
Description: as §1, §2

[1] = design: species or system Balb/c mice; details: mouse, in vivo; for Tmax: ip
Description: After drug administration, five animals from each group were euthanized at selected time-points (0.5, 1, 6, 12, 24 and 48 h) with pentobarbital intraperitoneal injection (120 mg/kg) followed by cardiac puncture for blood collection. Blood serum was separated after leaving the blood to coagulate for 30 min at room temperature and centrifugation (at 500× g, and 4 °C for 15 min). […] Both blood serum and serum ultrafiltrate were aliquoted (50 μL) and stored at −80 °C until ICP-MS analysis. Right brain hemisphere, liver, lungs, heart, right kidney, ovaries, abdominal white adipose tissue and abdominal mammary glands were excised at the same time, washed in cold PBS, blotted dry on filter paper and weighed. Solid tissues were freeze-dried (0.016 mBar, −80.8 °C, 48 h; Telstar®, model Cryodos Barcelona, Spain) and stored hermetically sealed at −80 °C until ICP-MS analysis.
Briefly, 50 μL of blood serum, 50 μL of serum ultrafiltrate and weighed entire freeze-dried organs/tissues (up to 50 mg) were placed into 10 mL polypropylene conical tubes. In the case of liver, for which the weight surpassed 50 mg, the tissue was first pulverized with a Precellys® Evolution tissue homogenizer (Bertin-Instruments, Montigny-le-Bretonneux, France) using 2.8 mm stainless steel beads (two cycles of 10 s at 6000 rpm speed) and accurately weighed (50 mg) in tubes. Samples were digested directly in tubes with 0.9 mL of HNO3 (≥69.0% w/w) plus 0.3 mL of HCl (37% w/w) in a water bath at 90 °C for 1 h. Sample digests were cooled to room temperature, 0.5 mL of a 100 µg/L internal standards (IS) solution was added and the final volume was adjusted to 5 mL with ultrapure water (final concentration of IS = 10 µg/L). Prior to ICP-MS analysis, samples were further diluted 5-fold with a diluent solution (2% HNO3 + 3% HCl + 10 µg/L IS). An iCAP^TM Q (Thermo Fisher Scientific, Bremen, Germany) ICP-MS was used for the determination of Pd and Pt in the obtained solutions. Calibration standards ranging from 0.025 to 100 µg/L were prepared from the 100 mg/L multi-element commercial TraceCERT®, ICH Q3D oral, Standard 2 solution. The IS solution was prepared at 100 µg/L by appropriate dilution of the ICP-MS-200.8-IS-1 solution.
The mean concentrations of Pd or Pt in serum and serum ultrafiltrate were plotted logarithmically versus time. Non-compartmental analysis was performed on sparse data with 1/Y^2 weighting, which was selected based on the highest correlation coefficients and agreement between observed versus predicted pharmacokinetic parameters. […] The area under the curve (AUC) from time zero to the last time with quantified concentration (AUC0-48h) was calculated by a linear log trapezoidal (linear up log down) method. The AUC from time zero to infinity (AUC0−∞) was extrapolated as AUC0−48 h + C48h/λz, where C48h is the last measured concentration, and λz is the elimination constant rate calculated using linear regression of the terminal portion of the log–linear serum concentration–time curve. The drug half-life (t1/2) was calculated as ln2/λz. The rate of total clearance (CL/F) of the compound was calculated as the administered metal dose divided by the AUC0−∞. The distribution volume based on the terminal phase (Vz/F) was calculated as dose/[λz.AUC0−∞].

[2] = mouse, in vivo
Description: After drug administration, five animals from each group were euthanized at selected time-points (0.5, 1, 6, 12, 24 and 48 h) with pentobarbital intraperitoneal injection (120 mg/kg) followed by cardiac puncture for blood collection. Blood serum was separated after leaving the blood to coagulate for 30 min at room temperature and centrifugation (at 500× g, and 4 °C for 15 min). […] Both blood serum and serum ultrafiltrate were aliquoted (50 μL) and stored at −80 °C until ICP-MS analysis. Right brain hemisphere, liver, lungs, heart, right kidney, ovaries, abdominal white adipose tissue and abdominal mammary glands were excised at the same time, washed in cold PBS, blotted dry on filter paper and weighed. […]
The mean concentrations of Pd or Pt in serum and serum ultrafiltrate were plotted logarithmically versus time. […] The area under the curve (AUC) from time zero to the last time with quantified concentration (AUC0-48h) was calculated by a linear log trapezoidal (linear up log down) method. […] The drug half-life (t1/2) was calculated as ln2/λz. The rate of total clearance (CL/F) of the compound was calculated as the administered metal dose divided by the AUC0−∞. The distribution volume based on the terminal phase (Vz/F) was calculated as dose/[λz.AUC0−∞].

[3] = test system: albumin / plasma proteins; details: rodents, 3 h post-administration; cited from earlier work

Compound	phosphorylation of H2AX histone (γH2AX) compared to cisplatin (H2AX histone (γH2AX))	decrease of fraction bound to plasma proteins at 48 h compared to the preceding period (plasma proteins) [%]	dependence of cellular drug uptake on drug concentration in medium (HCC-1143 cells)	intracellular accumulation compared to cisplatin (HCC-1143 cells; equimolar 2-8 µM)	dependence of cellular drug uptake on drug concentration in medium (MDA-MB-231 cells)	intracellular accumulation compared to cisplatin (MDA-MB-231 cells; equimolar 2-8 µM)	concentration of free Pd/Pt in serum ultrafiltrate at 48 h [1] [ng/mL]	Tmax [1] [min]	higher accumulation of Pd relative to Pt [2] [%]	lower accumulation of Pd than Pt (dose-normalized AUC) [2] [%]	bound to albumin (mostly via irreversible covalent bonds) [3] [%]
[Cl][Pd-2]1([Cl])[NH2+]CCC[NH+]1CCCC[NH+]1CCC[NH2+][Pd-2]1([Cl])[Cl] (stereo not drawn) [Pd2Spm]	more extensive phosphorylation of H2AX histone	3.1	increase linearly with drug concentration	lower intracellular Pd2Spm increase as compared to cisplatin	increase linearly with drug concentration	lower intracellular Pd2Spm increase as compared to cisplatin	2.3	30	74.2	82.7	
O=C(O)C(=O)O.[NH-][C@@H]1CCCC[C@H]1[NH-].[Pt+2] [oxaliplatin]											> 85
N.N.[Cl][Pt][Cl] [Cisplatin, cis-dichlorodiammine platinum(II), reference compound]			increase linearly with drug concentration		increase linearly with drug concentration		4.1	30			

Source: publication PMC7926495, “Preclinical Pharmacokinetics and Biodistribution of Anticancer Dinuclear Palladium(II)-Spermine Complex (Pd2Spm) in Mice” (Pharmaceuticals, 2021)
